Source: patent US20150132229A1, “BIS AZAINOSITOL HEAVY METAL COMPLEXES FOR X-RAY IMAGING” (BAYER PHARMA AKTIENGESELLSCHAFT, priority 2012, published 2015)

What was measured:
[1] = Stability of bis azainositol heavy metal complexes under heat sterilization (121° C., 45 min, pH 7.4; HPLC and ICP-OES); settings: aqueous buffered solution pH 7.4, 5 mmol/L, 121° C. for 45 min in steam autoclave; absolute stability = HPLC peak area ratio x metal concentration ratio after/before
Description: The stability of bis azainositol heavy metal complexes was determined in aqueous, buffered solution at pH 7.4. The solution containing 5 mmol/L of the compound in a tightly sealed vessel was heated to 121° C. for 45 min in a steam autoclave. The metal concentration of the solution was determined by ICP-OES before and after heat treatment. The integrity of the compound was determined by HPLC analysis before and after heat treatment. Absolute stability was calculated as the ratio of the peak area of the compound after and before the heat treatment multiplied with the ratio of the metal concentration of the solution after and before heat treatment.
Column: Reversed phase C18. […] Solvent B: methanol, HPLC grade Gradient: gradients starting from 100% A and 0% B were used. Flow: 1 mL/min Detector D1: element specific detection by ICP-OES running at the most sensitive emission wavelength of the respective complexed metal. Detector D2: element specific detection by ICP-MS running at the most abundant isotope of the respective complexed metal.

[2] = system: Han-Wistar rat; test: Preclinical X-ray imaging: contrast enhanced CT of an anaesthetized rat; format: in vivo; settings: i.v. tail vein, 200 mg Lu per kg body weight, 149 mg Lu/mL, 120 kV
Description: The study was performed on a clinical CT unit (Sensation 64, Siemens Medical Solutions, Erlangen, Germany) with an anaesthetized rat. The compound described in example 2 was used as X-ray diagnostic agents in order to perform contrast enhanced CT imaging.
The study was performed on a healthy Han-Wistar rat. Initial anaesthesia was induced by inhalation of 4% Isoflurane (Baxter Deutschland GmbH, Unterschleiβheim, Germany) and maintained by 1.5% Isoflurane. The X-ray diagnostic agent (Example 2) at a concentration of 149 mg Lu/mL was administered intravenously via the tail vein by the help of a dedicated injection pump (flow rate=0.6 mL/s). A dosage of 200 mg Lu per kg body weight was used. In order to simulate a clinical condition the rat was placed within a tissue equivalent phantom (QRM, Möhrendorf, Germany) that mimics the human abdomen in respect of X-ray absorption.
An X-ray projection image (topogram) was acquired to adjust the measurement range to the thoracal region of the animal. The subsequent contrast enhanced measurement was done with following CT parameter settings: X-ray tube voltage=120 kV, mAs-product=160 mAs, tube rotational time=0.5 s, slice thickness=2.4 mm, measurement time=20 s. […]
The signal-time course in the left heart chamber was quantified by a region of interest analysis. […]

[3] = system: mice; test: Tolerability in mice (behaviour and survival after 7 d); format: in vivo; settings: i.v. tail vein
Description: An aqueous solution of Na3[Lu3(H−3tacita)2](in 10 mM trometamol buffer, pH 7.4, 148 mg Lu/mL) was injected in the tail vein of 1-3 mice for each dose group (22-25 g) at increasing doses ranging from 1000 to 3000 mg Lu/kg. The behaviour of the animals and the survival after 7 d was recorded.

[4] = Excretion in rats (Hafnium in urine, faeces, organs and carcass by ICP-MS); format: in vivo; settings: i.v. 150 mg Hf/kg
Description: An aqueous solution of [Hf3(H−3tacitp)2](in 10 mM trometamol buffer, pH 7.4, 60 mg Hf/mL) was injected in the tail vein of 3 rats (ca. […]) at a dose of 150 mg Hf/kg. Urine samples were collected at the following time intervals: 0-0.5, 0.5-1, 1-3, 3-6, 6-24 h and then daily until day 7. Faeces was collected daily until day 7. On day 7 the animals were sacrificed and the following organs were excised: liver, kidneys, spleen, heart, lung, brain, lymph nodes, muscle, gut, duodenum, skin, bone marrow, bone. The remaining body was freeze dried and ground to obtain a fine powder.
The Hafnium concentration in all specimen was determined after digestion in oxidizing solution (nitric acid and hydrogen peroxide) at elevated pressure and temperature. The measurement of Hafnium was performed by ICP-MS.

[5] = Pharmacokinetics in rats (Hafnium blood concentration by ICP-MS, 3-compartment model); format: in vivo; settings: i.v. 150 mg Hf/kg
Description: An aqueous solution of [Hf3(H−3tacitp)2](in 10 mM trometamol buffer, pH 7.4, 60 mg Hf/mL) was injected in the tail vein of 3 rats (ca. 250 g) at a dose of 150 mg Hf/kg. Blood samples were collected via a catheter from the arteria carotis at the following times: 1, 2, 5, 10, 15, 30, 60, 90, 120, 240, 360 and 1440 min after injection.
The Hafnium concentration in all blood samples was determined after digestion in oxidizing solution (nitric acid and hydrogen peroxide) at elevated pressure and temperature. The measurement of Hafnium was performed by ICP-MS.
The pharmacokinetic parameters were obtained for each animal by fitting the blood concentrations to a 3-compartment model, using the software WinNonlin.

Trisodium bis{μ3-[(all-cis)-2-{[(carboxy-1κO)ethyl](methyl)-amino-1κN}-4-{[(carboxy-2κO)ethyl](methyl)amino-2κN}-6-{[(carboxy-3κO)ethyl]-(methyl)amino-3κN}cyclohexane-1,3,5-triolate-1κ^2O^1,O^3:2κ^2O^3,O^5:3κ^2O^1,O^5]}trilutetate(III) [Example 19]
Stability [1]: 90%

Trisodium bis{μ3-(all-cis)-2-{[(carboxy-1κO)ethyl](methyl)-amino-1κN}-4-{[(carboxy-2κO)ethyl](methyl)amino-2κN}-6-{[(carboxy-3κO)ethyl]-(methyl)amino-3κN}cyclohexane-1,3,5-triolate-1κ^2O^1,O^3:2κ^2O^3,O^5:3κ^2O^1,O^5]}triytterbate(II) [Example 23]
Stability [1]: 96%

Trisodium bis{μ3-[(all-cis)-2-{[(carboxy-1κO)methyl]amino-1κN}-4-{[(carboxy-2κO)methyl]amino-2κN}-6-{[(carboxy-3κO)methyl]amino-3κN}cyclohexane-1,3,5-triolate-1κ^2O^1,O^3:2κ^2O^3,O^5:3κ^2O^1,O^5]}trilutetate(III) [Example 2]
CT signal change in blood vessels and heart chambers during passage of the diagnostic agent [2]: strong signal increase
survival after 7 d ([3]; 1000 mg Lu/kg): all animals survived
survival after 7 d ([3]; 2000 mg Lu/kg): all animals survived
survival after 7 d ([3]; 2500 mg Lu/kg): all animals survived
survival after 7 d ([3]; 3000 mg Lu/kg): 2 of 3 animals died
Stability [1]: 100%

Bis{μ3-[(all-cis)-2-{[(carboxy-1κO)methyl]amino-1κN}-4-{[(carboxy-2κO)methyl]amino-2κN}-6-{[(carboxy-3κO)methyl]amino-3κN}cyclohexane-1,3,5-triolate-1κ^2O^1,O^3:2κ^2O^3,O^5:3κ^2O^1,O^5]}trihafnium(IV) [Example 1]
Stability [1]: 102%

Bis{μ3-[(all-cis)-2-{[(carboxy-1κO)ethyl]amino-1κN}-4-{[(carboxy-2κO)ethyl]amino-2κN}-6-{[(carboxy-3κO)ethyl]amino-3κN}cyclohexane-1,3,5-triolate-1κ^2O^1,O^3:2κ^2O^3,O^5:3κ^2O^1,O^5]}trihafnium(IV) [Example 13]
injected Hafnium excreted via the urine ([4]; after 1 d, cumulative): 96%
Hafnium content of organs other than kidney ([4]; after 7 d): ≤ 0.01 % of the injected dose/g organ (wet weight)
injected Hafnium found in all organs and the carcass together ([4]; after 7 d): 0.33%
injected Hafnium excreted via the urine ([4]; after 7 d, cumulative): 97%
injected Hafnium found in faeces ([4]; after 7 d, cumulative): About 1.3%
total plasma clearance [5]: 10 ± 0.6 mL/min/kg
blood half live ([5]; elimination phase): 22.6 ± 3.1 min
volume of distribution ([5]; elimination phase): 0.31±0.01 I/kg
